Test results published in PMC5522078, “Discovery and characterization of small molecules targeting the DNA-binding ETS domain of ERG in prostate cancer” (Oncotarget, 2017).
Like-named read-outs stand apart in the source and are kept apart here.

Key:
[1] = Compound solubility and stability (LC-PDA-MS); type: physicochemical
Protocol: This […] […] Data was analyzed using FlowJo Eppendorf tubes. Saturated PBS samples were further software (TreeStar, USA). […] After 24 h, plates were treated with vehicle control, […] and a Quattro Premier (Waters). […] […] diluting stocks (50 mM in DMSO) 1000x in Methanol (standard), PBS, or media. Resulting solutions were clarified by centrifugation and an aliquot of the supernatant was extracted with 2 volumes acetonitrile. VPC-18005 solubility determined as fraction remaining as quantified by LC-PDA-MS versus the methanol solution as standard.

PC3 cells = experiment: MTS cell viability assay, PC3; type: cell-based, human; conditions: 72 h
Protocol: (§1) 3-(4,5-dimethylthiazol-2-yl)-5-(3-carboxymethoxyp henyl)-2-(4-sulfophenyl)-2H-tetrazolium, inner salt (MTS). Cells were seeded at a density of 3000 cells per well (except VCaP at 20,000/well) in 100 μL of appropriate media in 96 well culture dishes. Twenty four hours later, 100 μL of medium containing vehicle control or compounds. Each treatment was prepared in triplicate. After a 72 h treatment, cellular viability was assessed using CellTiter 96 ® Aqueous One Solution Cell Proliferation Assay reagent (Promega) according to the manufacturer's instructions. Values were normalized to the DMSO control.

VCaP cells [2] = system: VCaP cells
Protocol: (media), and phosphate buffered saline (PBS) and vortex Cells were detached by treatment with Accutase
The (Gibco), then underwent APC BrdU Flow Kit protocol
Cells were analysed on a FACSCanto™
Saturated PBS samples were further software (TreeStar, USA). […] Aliquots of these analysed statistically by Two-Way ANOVA.

PNT1B-ERG or VCaP cells = experiment: Zebrafish yolk sac dissemination (xenograft metastasis) assay; type: in vivo; conditions: 1 and 10 μM in water; 5 days; untreated 65 to 70%
Protocol: Research was carried in accordance with protocols compliant to the Canadian Council on Animal Care and with the approval of the Animal Care Committee at the University of British Columbia. The wildtype zebrafish strain was maintained in aquaria according to standard protocols. Embryos were generated by natural pair-wise matings and raised at 28.5°C on a 14 h light/10 h dark cycle in a 100 mm^2 petri dish containing aquarium water. Phenylthiourea (0.2 mM PTU, Sigma) was added to the embryos at 10 h post-fertilization (hpf) to prevent pigment formation. Yolk sac dissemination assay. PCa cell lines were fluorescently labelled the day before microinjection with 1.5 μM of CellTracker CM-Dil dye (Life Technologies) as per manufacturer's instructions. Wild-type embryos were dechorionated at 2 dpf. Following anaesthetization with tricane, approximately 50–70 cancer cells were microinjected into the yolk sac. Embryos were then transferred to 100 mm^2 plates that contained aquaria water with added PTU and VPC-18005, YK-4-279 or DMSO control. Embryos were visually assessed for presence of xenograph. […] Embryos were kept at 35°C for the duration of the experiment. Approximately, 50 fish were injected per cell line and metastasis was determined on Day 4 and 5 by observation using the Zeiss Axio Observer microscope (5X objective) controlled with Zen 2012 software. […]

ERG = biological target: T1, ERG (Homo sapiens, UniProt P11308); experiment: Dual reporter luciferase assay (pETS-luc) in VCaP cells; type: cell-based; conditions: 0.1-100 μM, 48 h treatment
T1 construct: VCaP (endogenous overexpression); endogenous in cells; host or cells: VCaP (whole cells for A2 and A17; nuclear extract for A16)
T1 sequence (P11308 33-479 limits assumed): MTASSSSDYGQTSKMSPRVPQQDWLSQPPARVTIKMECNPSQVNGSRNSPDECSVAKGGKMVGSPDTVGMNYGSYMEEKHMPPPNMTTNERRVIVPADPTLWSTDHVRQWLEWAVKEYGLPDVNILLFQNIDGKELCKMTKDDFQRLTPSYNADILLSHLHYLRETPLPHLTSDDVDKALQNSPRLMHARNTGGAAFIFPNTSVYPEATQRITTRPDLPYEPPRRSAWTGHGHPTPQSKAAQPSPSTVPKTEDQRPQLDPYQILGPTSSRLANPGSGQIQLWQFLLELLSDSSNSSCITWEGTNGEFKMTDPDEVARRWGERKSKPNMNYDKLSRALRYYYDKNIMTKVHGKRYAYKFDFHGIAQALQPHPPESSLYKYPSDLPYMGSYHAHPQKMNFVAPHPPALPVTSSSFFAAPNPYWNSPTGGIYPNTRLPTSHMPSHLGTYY
Protocol: All of the compounds selected from the virtual screening were tested in a luciferase-based ERG-responsive reporter assay, using two ERG-overexpressing cell lines, VCaP and PNT1B-ERG, previously developed in house. […] Data were normalized first to Renilla luciferase and then to the DMSO-media control on each plate, unless otherwise stated. Initial hit compounds were identified as those with an average normalized luciferase reading (firefly luciferase/Renilla luciferase readings) that is 60% or less of the average normalized luciferase reading of the DMSO-media control (i.e. 40% or more reduction of luciferase activity) at 10 μM. Representative example of raw Renilla luciferase readings presented in Supplementary Figure 9B. The luciferase assays were repeated for each lead compound under multiple concentrations (0.1 to 100 μM) to establish a dose-dependent response and an IC50 value. AR reporter assay was performed as previously described.

VCaP cells [3] = experiment: MTS cell viability assay, VCaP; type: cell-based, human; conditions: 72 h
Protocol: as §1

ERG-ETS/DNA complex = biological target: T2, ERG-ETS/DNA complex (Homo sapiens, UniProt P11308); experiment: EMSA competition, purified ERG-ETS domain and dsDNA; type: binding; conditions: for Disruption of recombinant ERG-ETS/DNA complex formation: up to 8 mM
T2 construct: A pET28a plasmid encoding residues 307–400 of the ERG-ETS domain; His6 (cleaved yes); made in house; host or cells: E. coli BL21 (λDE3)
T2 sequence (P11308 307-400): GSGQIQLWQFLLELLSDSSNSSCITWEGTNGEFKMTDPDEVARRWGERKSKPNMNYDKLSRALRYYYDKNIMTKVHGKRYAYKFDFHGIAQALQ
Protocol: To prepare the probe for the gel shift assay, equal amounts (200 nM) of Alexa-488 fluorophore-labeled DNAs ([NT] and its complement) were mixed, heated to 95°C for 30 minutes, and then slowly cooled to 25°C in several hours. […] The gel was scanned with Typhoon 9200 Imager equipped with blue laser to excite at 490 nm and fluorescence was measured at 520 nm. The scanned image was analyzed with Image J [48]. […] The result of this initial study was used to set the molar ratio of ERG-ETS domain:DNA in subsequent competition assays with VPC-18005. […] The data were fit to the equation for competitive binding, fb,i = [ERG]/([ERG] + KD{1 + [VPC-18005]i/KI}), where KI is the inhibitor dissociation constant and the fraction bound, fb,i, was calculated the intensity of the bound DNA band at each titration point relative to that without added VPC-18005. A control experiment was carried out by titrating with equivalent quantities of DMSO.

Structure (SMILES)	Media solubility [1]	Stability in media (fraction remaining) ([1]; 72 h) [%]	Doses with inhibition of cell viability (MTS), PC3 (PC3 cells) [µM]	G0–G1 phase population (VCaP cells [2]; 5 and 10 μM)	Percentage of fish with PNT1B-ERG or VCaP dissemination (PNT1B-ERG or VCaP cells)	IC50 (ERG) [µM]	Doses with inhibition of cell viability (MTS), VCaP (VCaP cells [3]) [µM]	Disruption of recombinant ERG-ETS/DNA complex formation (ERG-ETS/DNA complex)	solubility at 1 h ([1]; cell culture media (RPMI + 5% charcoal stripped serum), plasma or biological fluid, kinetic from dmso stock, RPMI + 5% CSS, 50 mM DMSO stock diluted 1,000x) [µM]	Media solubility ([1]; media)	Stability in media (fraction remaining) ([1]; media, 3 days, RT) [%]	Effect on cell viability (MTS), PC3 (PC3 cells; 0.2–25 μM)	Impact on cell cycle distribution (VCaP cells [2])	Effect on cell viability (MTS), VCaP (VCaP cells [3]; 0.2–25 μM)	Ki (ERG-ETS/DNA complex; 4 nM ERG-ETS domain, 1 nM dsDNA, read-out: KI, disruption of ERG-ETS/DNA complex formation) [µM]
COc1ccc(C(=O)CC2(O)C(=O)Nc3c(Cl)ccc(Cl)c32)cc1 (stereo not drawn) [YK-4-279, reference compound]	soluble	60	≥ 5	concomitantly reduced	40–60%	16	≥ 5	did not disrupt binding							
CC(C)c1ccc(C=N/N=C2\NC(=O)[C@@H](CC(=O)O)S2)cc1 (stereo in doubt) [VPC-18005, 2-((Z)-2-(((Z)-4-isopropylbenzylidene)hydrazono)-4-oxothiazolidin-5-yl)acetic acid]					20–30%	6		dose-dependent disruption	> 50	soluble in media	93	did not decrease viability	did not impact cell cycle distribution	did not decrease viability	~250
